This is an account of results in ChEMBL document CHEMBL5620394, “Synthesis of new antiproliferative 1,3,4-substituted-pyrrolo[3,2-c]quinoline derivatives, biological and in silico insights” (Eur J Med Chem, 2023).

Calls of active or inactive are those of the source. The rule behind the calls is not given here.

Data set [1] can be described thus: Antiproliferative activity against human 16HBE14o- cells assessed as inhibition of cell growth incubated for 4 hrs by MTS assay. It is filed as toxicity, cell-based. The note with it: read-out: IG50. For orientation: Tetrazolium assays rely on reduction of a dye to a coloured formazan, in cell work by metabolically active cells.
The test system of data set [2] is HeLa. The data set is described as follows: Antiproliferative activity against human HeLa cells assessed as inhibition of cell growth incubated for 4 hrs by MTS assay. It is filed as functional.
Data set [3] concerns MCF7. Kind of data set: Antiproliferative activity against human MCF7 cells assessed as inhibition of cell growth incubated for 4 hrs by MTS assay. It is filed as functional.
The test system of data set [4] is MCF7. The data set is described as follows: Antiproliferative activity against human MCF7 cells assessed as reduction in cell growth at 10 to 100 uM incubated for 4 hrs by MTS assay. The format is functional, cell-based. Particulars: dose 10-100 µM.
In data set [5] the test system is CCRF-CEM. The data set is described as follows: Antiproliferative activity against human CCRF-CEM cells assessed as cell growth at 10 uM incubated for 48 hrs by sulforhodamine B assay relative to control. The format is functional. Particulars: read-out: Activity. Background: In SRB staining, fixed cells bind dye roughly in proportion to their protein.
The subject of data set [6] is HL-60. The data set is described as follows: Antiproliferative activity against human HL-60 cells assessed as cell growth at 10 uM incubated for 48 hrs by sulforhodamine B assay relative to control. The format is functional. Particulars: read-out: Activity.
The subject of data set [7] is K562. The data set is described as follows: Antiproliferative activity against human K562 cells assessed as cell growth at 10 uM incubated for 48 hrs by sulforhodamine B assay relative to control. Particulars: read-out: Activity. It is filed as functional.
Data set [8] concerns MOLT-4. Kind of data set: Antiproliferative activity against human MOLT-4 cells assessed as cell growth at 10 uM incubated for 48 hrs by sulforhodamine B assay relative to control. It is filed as functional. The note with it: read-out: Activity.
Data set [9] deals with RPMI-8226. The data set is described as follows: Antiproliferative activity against human RPMI-8226 cells assessed as cell growth at 10 uM incubated for 48 hrs by sulforhodamine B assay relative to control. The format is functional. The note with it: read-out: Activity.
Data set [10] concerns SR. Kind of data set: Antiproliferative activity against human SR cells assessed as cell growth at 10 uM incubated for 48 hrs by sulforhodamine B assay relative to control. The format is functional. Particulars: read-out: Activity.
Data set [11] deals with NCI-H226. The data set is described as follows: Antiproliferative activity against human NCI-H226 cells assessed as cell growth at 10 uM incubated for 48 hrs by sulforhodamine B assay relative to control. It is filed as functional. The note with it: read-out: Activity.
In data set [12] the test system is NCI-H522. Kind of data set: Antiproliferative activity against human NCI-H522 cells assessed as cell growth at 10 uM incubated for 48 hrs by sulforhodamine B assay relative to control. The format is functional. Particulars: read-out: Activity.
Data set [13] concerns HT-29. The data set is described as follows: Antiproliferative activity against human HT-29 cells assessed as cell growth at 10 uM incubated for 48 hrs by sulforhodamine B assay relative to control. The format is functional. The note with it: read-out: Activity.
Data set [14] has as its system SNB-75. Kind of data set: Antiproliferative activity against human SNB-75 cells assessed as cell growth at 10 uM incubated for 48 hrs by sulforhodamine B assay relative to control. The format is functional. The note with it: read-out: Activity.
Data set [15] concerns UACC-257. The data set is described as follows: Antiproliferative activity against human UACC-257 cells assessed as cell growth at 10 uM incubated for 48 hrs by sulforhodamine B assay relative to control. It is filed as functional. The note with it: read-out: Activity.
For data set [16], the system named is UACC-62. Kind of data set: Antiproliferative activity against human UACC-62 cells assessed as cell growth at 10 uM incubated for 48 hrs by sulforhodamine B assay relative to control. The note with it: read-out: Activity. It is filed as functional.
Data set [17] relates to 786-0. The data set is described as follows: Antiproliferative activity against human 786-0 cells assessed as cell growth at 10 uM incubated for 48 hrs by sulforhodamine B assay relative to control. It is filed as functional. The note with it: read-out: Activity.
Data set [18] has as its system CAKI-1. Kind of data set: Antiproliferative activity against human CAKI-1 cells assessed as cell growth at 10 uM incubated for 48 hrs by sulforhodamine B assay relative to control. The format is functional. Particulars: read-out: Activity.
For data set [19], the system named is UO-31. Kind of data set: Antiproliferative activity against human UO-31 cells assessed as cell growth at 10 uM incubated for 48 hrs by sulforhodamine B assay relative to control. The format is functional. The note with it: read-out: Activity.
The test system of data set [20] is PC-3. The data set is described as follows: Antiproliferative activity against human PC-3 cells assessed as cell growth at 10 uM incubated for 48 hrs by sulforhodamine B assay relative to control. The format is functional. Particulars: read-out: Activity.
Data set [21] concerns MCF7. Kind of data set: Antiproliferative activity against human MCF7 cells assessed as cell growth at 10 uM incubated for 48 hrs by sulforhodamine B assay relative to control. Particulars: read-out: Activity. The format is functional.
Data set [22] deals with MDA-MB-231. Kind of data set: Antiproliferative activity against human MDA-MB-231 cells assessed as cell growth at 10 uM incubated for 48 hrs by sulforhodamine B assay relative to control. It is filed as functional. Particulars: read-out: Activity.
Data set [23] relates to T47D. Kind of data set: Antiproliferative activity against human T47D cells assessed as cell growth at 10 uM incubated for 48 hrs by sulforhodamine B assay relative to control. The format is functional. Particulars: read-out: Activity.
Data set [24] has as its system LA-N-5. The data set is described as follows: Antiproliferative activity against human LA-N-5 cells assessed as reduction in cell growth at 10 to 100 uM incubated for 4 hrs by MTS assay. The format is functional, cell-based. The note with it: dose 10-100 µM.

For `CC(=O)c1c(C)[nH]c2c1c(-c1ccccc1)nc1ccccc12`, the GI50 at 4 h in [1] was determined as 10 µM. For the same molecule, the IG50 in data set [2] and in data set [3] was 10 µM in each case. Moreover, the result in [4] was Active. The growth at 10 µM in [5] was determined as 87.2%; in [6], 82.7%; in data set [7], 92.6%; in data set [8], 106%; in data set [9], 87.9%; in data set [10] it was 71.9%. Besides, the growth at 10 µM was found to be 76.7% in [11]; 72.3% in data set [12]; 92.8% in data set [13]; 42.3% in data set [14]; 75.1% in data set [15]; 62.4% in data set [16]. Moreover, the growth at 10 µM in data set [17] stood at 76.7%; in data set [18], 54%; in data set [19], 36.6%; in data set [20], 78.6%; in data set [21], 73.7%; in data set [22], 84.4%. In addition, the growth at 10 µM in data set [23] is 82.5%.
Take `CC(=O)c1c(C)n(-c2ccccc2)c2c1c(-c1ccccc1)nc1ccccc12`: the outcome in data set [4] and in data set [24] was Active. Moreover, the growth at 10 µM in data set [5] is 95.9%; in data set [6], 90.7%; in [7] it was 76.8%; in data set [8], 77.6%; in [9] it was 87.5%; in [10] it was 79.5%. For the same molecule, the growth at 10 µM in [11] came to 84.2%; in data set [12] it was 77%; in data set [14], 75.1%; in data set [15], 98.1%; in data set [16] it was 70.4%; in [17], 88.5%. Moreover, the growth at 10 µM stood at 72.3% in data set [18]; 59.6% in data set [19]; 85.7% in data set [20]; 89.6% in [21]; 76.3% in data set [22]; 102% in [23].
